Values of other authors as cited in patent publication US9642389B2 (MALAYSIAN PALM OIL BOARD, priority 2009, dated 2017).

How the values were obtained:
[1] = system: Fos; conditions: aged rats, literature [34]
[2] = system: brains of ovariectomized female rats; conditions: literature [33]
[3] = system: mice; conditions: literature [16-20]

## CC(C)=CCC[C@](C)(O[C@@H]1O[C@H](CO)[C@@H](O)[C@H](O)[C@H]1O)[C@H]1CC[C@]2(C)[C@@H]1[C@H](O)C[C@@H]1[C@@]3(C)CC[C@H](O)C(C)(C)[C@@H]3[C@@H](O[C@@H]3O[C@H](CO)[C@@H](O)[C@H](O)[C@H]3O)C[C@]12C [ginsenoside Rg1]
[1]
  age-related decline of Fos in the hippocampi: attenuated

## O=c1c(O)c(-c2ccc(O)c(O)c2)oc2cc(O)cc(O)c12 [quercetin]
[2]
  rate of protein synthesis in brains: up-regulated

## Oc1ccc(C=Cc2cc(O)cc(O)c2)cc1 [resveratrol]
[3]
  performance of mice on rotarods: improve
